Data: US12630557B2, “Salt and crystal form of pyrimidine compound, and preparation methods therefor” (Sichuan Kelun-Biotech Biopharmaceutical Co., Ltd., priority 2020, dated 2026)
In brackets after ≈: the same amount, converted by molar mass.

How the values were obtained:
[1] = Solubility determination at different pH; format: physicochemical; conditions: aqueous buffer
[2] = Stability experiment under conditions of influencing factors (high temperature / high humidity); format: physicochemical; conditions: for HPLC purity: area normalized purity
Excerpt: Stability data of the crystal form A of the fumarate salt of the compound I under conditions of influencing factors is provided in Table 17 (HPLC purity is area normalized purity).

[3] = Dynamic water adsorption (DVS) experiment; format: physicochemical; conditions: 25° C.
Procedure: Device information: SMS (Surface Measurement Systems) Intrinsic
Experimental method: temperature: 25° C.; protective gas N2; maximum equilibration time: 120 min; RH range: 0%-90%-0%.

CCDC6-RET = biological target: T1, CCDC6-RET (Homo sapiens, UniProt P07949); assay: HTRF KinEASE-TK RET enzyme inhibition; format: biochemical; conditions: CCDC6-RET 0.3 nM, ATP 15 μM; read-out: Inhibitory IC50 on RET enzyme
T1 construct: the other entry of the earlier key: CCDC6 (Q16204, Coiled-coil domain-containing protein 6)
T1 sequence (P07949 with tags, fused parts or gaps): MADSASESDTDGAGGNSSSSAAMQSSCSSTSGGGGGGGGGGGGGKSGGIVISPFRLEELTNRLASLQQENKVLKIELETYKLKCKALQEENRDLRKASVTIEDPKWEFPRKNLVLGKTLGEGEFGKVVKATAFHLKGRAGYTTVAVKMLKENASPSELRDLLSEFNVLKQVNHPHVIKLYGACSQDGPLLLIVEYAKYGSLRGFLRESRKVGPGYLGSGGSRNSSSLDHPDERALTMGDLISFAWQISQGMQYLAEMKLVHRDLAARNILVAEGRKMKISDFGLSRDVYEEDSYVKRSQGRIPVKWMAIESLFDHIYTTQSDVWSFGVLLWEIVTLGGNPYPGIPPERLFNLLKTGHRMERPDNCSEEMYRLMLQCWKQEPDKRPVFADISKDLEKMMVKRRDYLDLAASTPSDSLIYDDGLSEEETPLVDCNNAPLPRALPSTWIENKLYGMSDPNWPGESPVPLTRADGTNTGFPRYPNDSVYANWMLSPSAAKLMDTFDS
Procedure: (§1) The inhibitory effects of the crystal form A of the fumarate salt of the compound I on the activity of wild-type RET, mutant-type RET (RET^V804M RET^V804L, and RET^M918T), and fusion-type RET (CCDC6-RET and KIF5B-RET) were determined using HTRF KinEASE-TK (Cisbio) kit.
(§2) After pre-incubation of the above different types of RET enzymes and different concentrations of the test compounds (9 concentration points) at room temperature for 30 min, a substrate and adenosine triphosphate (ATP) were added to initiate the reaction. After incubation at room temperature for 40 min, TK antibody-cryptate and streptavidin-XL665 were added, and after incubation at room temperature for 60 min, the detection was performed.
(§3) With the solvent group (DMSO) as the negative control and the buffer group (without RET enzyme) as the blank control, the relative inhibitory activity percentages of the compound at different concentrations were computed as per the following equation: Relative inhibitory activity percentage=1−(compound group of different concentrations-blank control)/(negative control-blank control)*100%
(§4) The relative inhibitory activity percentages of the compound at different concentrations were plotted with respect to the compound concentrations, and the curve was fitted in accordance with a four-parameter model to compute the IC50 value as per the following equation: y=min+(max−min)/(1+(x/IC50)^(−Hillslope)) • where y is the relative inhibitory activity percentage, max and min are a maximum value of the fitted curve, and a minimum value of the fitted curve respectively, x is a logarithmic concentration of the compound, and Hillslope is a slope of the curve.

RET^M918T = RET^M918T (Homo sapiens, UniProt P07949, M918T); assay: HTRF KinEASE-TK RET enzyme inhibition; format: biochemical; conditions: RET^M918T 0.3 nM, ATP 15 μM; read-out: Inhibitory IC50 on RET enzyme
RET^M918T, sequence (P07949 29-1114 M918T): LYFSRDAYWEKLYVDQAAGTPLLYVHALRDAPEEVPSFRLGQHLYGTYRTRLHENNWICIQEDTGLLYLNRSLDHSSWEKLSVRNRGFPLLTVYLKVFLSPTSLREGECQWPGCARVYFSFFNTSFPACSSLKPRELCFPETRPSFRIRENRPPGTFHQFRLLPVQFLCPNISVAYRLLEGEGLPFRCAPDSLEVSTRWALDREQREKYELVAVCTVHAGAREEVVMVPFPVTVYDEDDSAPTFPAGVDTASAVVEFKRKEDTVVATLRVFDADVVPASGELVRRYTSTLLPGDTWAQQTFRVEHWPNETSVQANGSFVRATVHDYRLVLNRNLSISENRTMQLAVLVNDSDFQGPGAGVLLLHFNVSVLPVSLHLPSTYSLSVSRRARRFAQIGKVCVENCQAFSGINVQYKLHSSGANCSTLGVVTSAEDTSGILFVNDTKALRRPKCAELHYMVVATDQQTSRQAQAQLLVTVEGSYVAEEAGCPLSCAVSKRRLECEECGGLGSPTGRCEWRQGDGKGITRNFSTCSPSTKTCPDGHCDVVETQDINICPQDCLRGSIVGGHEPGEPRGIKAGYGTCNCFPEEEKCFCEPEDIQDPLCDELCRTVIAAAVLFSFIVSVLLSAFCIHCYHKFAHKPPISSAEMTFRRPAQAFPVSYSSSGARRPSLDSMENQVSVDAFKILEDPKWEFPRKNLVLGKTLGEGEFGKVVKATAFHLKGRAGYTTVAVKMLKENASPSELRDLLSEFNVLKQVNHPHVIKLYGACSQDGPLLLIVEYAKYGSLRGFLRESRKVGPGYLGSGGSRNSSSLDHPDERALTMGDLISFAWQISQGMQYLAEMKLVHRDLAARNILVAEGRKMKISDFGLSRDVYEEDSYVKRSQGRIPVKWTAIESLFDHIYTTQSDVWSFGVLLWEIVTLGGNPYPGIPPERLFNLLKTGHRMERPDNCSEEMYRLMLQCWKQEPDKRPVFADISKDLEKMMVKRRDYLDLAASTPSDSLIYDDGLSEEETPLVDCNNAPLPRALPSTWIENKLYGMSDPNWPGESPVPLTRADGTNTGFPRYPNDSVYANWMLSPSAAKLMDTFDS
Procedure: as §1, §2, §3, §4

RET^V804L = RET^V804L (Homo sapiens, UniProt P07949, V804L); assay: HTRF KinEASE-TK RET enzyme inhibition; format: biochemical; conditions: RET^V804L 0.6 nM, ATP 10 μM; read-out: Inhibitory IC50 on RET enzyme
RET^V804L, sequence (P07949 29-1114 V804L): as the sequence (P07949 29-1114 M918T) above, with V776L, T890M counted along it
Procedure: as §1, §2, §3, §4

RET^V804M = RET^V804M (Homo sapiens, UniProt P07949, V804M); assay: HTRF KinEASE-TK RET enzyme inhibition; format: biochemical; conditions: RET^V804M 0.6 nM, ATP 15 μM; read-out: Inhibitory IC50 on RET enzyme
RET^V804M, sequence (P07949 29-1114 V804M): as the sequence (P07949 29-1114 M918T) above, with V776M, T890M counted along it
Procedure: as §1, §2, §3, §4

wild-type RET = wild-type RET (Homo sapiens, UniProt P07949); assay: HTRF KinEASE-TK RET enzyme inhibition; format: biochemical; conditions: RET 0.2 nM, ATP 30 μM; read-out: Inhibitory IC50 on RET enzyme
wild-type RET, sequence (P07949 29-1114): as the sequence (P07949 29-1114 M918T) above, with T890M counted along it
Procedure: as §1, §2, §3, §4

[4] = Pharmacokinetic study in mice; format: in vivo; conditions: female Balb/c mice, PO 1 mg/kg, plasma compound I
Procedure: Female Balb/c mice (6 mice) were orally administered with 1 mg/kg of the crystal form A of the fumarate salt of the compound I by gavage. The compound was first dissolved with 0.5% methylcellulose solution and ultrasonicated to ensure complete dissolution or uniform suspension of the compound. 30 min, 1 […], and 24 h after administration, 0.2 mL of blood (EDTA-K2 anticoagulated) was venously collected. The collected whole blood was temporarily stored in an ice box, and centrifuged for 10 min within 2 h to separate the plasma (4° C.). The collected plasma was stored in a refrigerator at -80° C. prior to testing. The blood concentration of the compound I was detected by LC-MS/MS, and the linear range was from 10 to 10000 ng/mL.

[5] = High humidity 25° C. ± 2° C./92.5% RH ± 5% RH, Day 30
[6] = High temperature 60° C. ± 2° C., Day 30

SMILES: Cc1cc(Nc2cc(C)[nH]n2)nc(-c2ccc(N3CC4CC(C3)N4Cc3ccc(-n4cc(F)cn4)nc3)nc2)n1
- solubility ([1]; Buffer pH 1.0): ≥ 12200 µg/mL
- solubility ([1]; Buffer pH 2.0): 3500 µg/mL (≈ 6.51 mM)
- solubility ([1]; Buffer pH 3.0): 2500 µg/mL (≈ 4.65 mM)
- Appearance ([2]; Day 0): White solid
- HPLC purity ([2]; Day 0): 99.6%
- Appearance [2, 5]: White solid
- Crystal form [2, 5]: form A
- HPLC purity [2, 5]: 99.5%
- Appearance [2, 6]: White solid
- Crystal form [2, 6]: form A
- HPLC purity [2, 6]: 99.3%
- crystal form before and after the DVS test ([3]; RH range 0%-90%-0%): remained changed
- desorption of adsorbed water (DVS) ([3]; humidity decreased from 90% to 0%): fully desorbed
- water absorbed (DVS) ([3]; humidity increased to 90%): about 0.7%
- IC50 (CCDC6-RET): 2.48 ± 1 nM
- IC50 (RET^M918T): 2.23 ± 0.64 nM
- IC50 (RET^V804L): 1.59 ± 0.51 nM
- IC50 (RET^V804M): 0.6 ± 0.2 nM
- IC50 (wild-type RET): 0.56 ± 0.09 nM
- Cl [4]: 1.47 mL/min/kg
- Vd [4]: 0.356 L/kg
- AUC(0-inf) ([4]; mouse): 11400 ng·h/mL
- AUC(0-t) ([4]; mouse): 11400 ng·h/mL
- Cmax ([4]; mouse): 2060 ng/mL
- Tmax ([4]; mouse): 1 h
- half-life ([4]; mouse): 2.81 h
